In the case of CC(C)COc1ccccc1C(N)=O, the melting point is reported as 125 to 128 °C.
For CC(Oc1ncn(-c2ccc(Br)cc2)n1)C(N)=O (stereo unspecified), the melting point was 179 to 181 °C.
COc1cc(N)c(Cl)cc1C(=O)NCC1CCN(CCCCCCC(=O)c2ccc(Cl)cc2)CC1 gave a melting point of 137 to 138 °C.
In the case of O=C1c2cccc3c2N(CC3)c2ccc(Br)cc2N1CC#CCN1CCCC1, the melting point is reported as 121 to 122 °C.
For CN(C)C(=O)Cc1nc(-c2ccncc2)nc2c1c1ccc(Cl)cc1n2C, the melting point was 231 to 232 °C.
With Cc1oc(-c2ccccc2)nc1COc1cccc([N+](=O)[O-])c1 the melting point was 106 to 107 °C.
CC1(C)c2cc(OS(C)(=O)=O)ccc2OC1O (stereo unspecified) gave a melting point of 69 to 72 °C.
CC(C)(C)c1ccccc1N1CCN(C(=O)CCC(=O)O)CC1 gave a melting point of 175 to 176 °C.
CCCCOC(=O)c1ccc(OCCCC)c(C(C)=O)c1 gave a melting point of 39 to 40 °C.
For O=C(OCc1c(F)c(F)nc(F)c1Cl)c1ccccc1, the melting point was 60 °C.
With CCS(=O)(=O)Nc1nc(CCCN2CCN(C(c3ccccc3)c3ccccc3)CC2)cs1 the melting point was 162 to 164 °C.
Work on O=C1c2ccc(F)cc2C(=O)N1CCN1CCN(c2n[nH]c3cc(F)ccc23)CC1 yielded a melting point of 282 to 285 °C.
Work on CC(=O)Nc1cc(C)nn1C(C)(C)C yielded a melting point of 118 to 120 °C.
COC(=O)/C=C\c1cnn(C)c1-c1ccc(F)cc1 showed a melting point of 108 to 109 °C.
With COC(=O)C1Cc2c(n(C)c3ccccc23)CN1C(=S)SCc1cccs1 (stereo unspecified) the melting point was 139 to 140 °C.
Cc1oncc1C(=O)N1CCC[C@H](c2nc(-c3ccc[nH]3)no2)C1 showed a melting point of 125 to 127 °C.
In the case of CCCc1c(OCC(O)COc2cc(N)c(C)cc2Cl)ccc(C(C)=O)c1O (stereo unspecified), the melting point is reported as 94 to 95 °C.
With CCCCCCCCCCCCCCCCN1CCN(c2ccc(C=CC(=O)O)cc2)CC1 the melting point was 251 to 253 °C.
COCCNCc1ccc(-c2cc3ncnc(Nc4ccc5[nH]ccc5c4)c3s2)cc1 gave a melting point of 170 to 190 °C.
Cc1ccc2cc(C(=O)NCCSC(c3ccccc3)(c3ccccc3)c3ccccc3)[nH]c2c1NS(=O)(=O)c1cccs1 showed a melting point of 245 to 246 °C.
Compound COc1ccc2c(c1)C(=O)N(c1ccc3c(ccn3C(C)C)c1)C2 has a melting point of 144 to 148 °C.
Work on CC(=CC(=O)c1cccnc1)N(C)C yielded a melting point of 62 to 64 °C.
In the case of NS(=O)(=O)c1sc(Cl)cc1C(=O)CBr, the melting point is reported as 147 to 148 °C.
With OCCN=C1c2ccccc2CCc2ccccc21 the melting point was 93 to 94 °C.
Compound O=C1Nc2cccnc2N(C(=O)NCCN2CCCC(CN3CCCCCC3)C2)c2ccccc21 (stereo unspecified) has a melting point of 135 to 137 °C.
In the case of CCOc1cccnc1CSCCNC(=C[N+](=O)[O-])SC, the melting point is reported as 126 to 127 °C.
Work on CC(=C1SC(=O)NC1=O)c1ccc(OCCOc2c(-c3ccc(Cl)cc3)n(C)c3ccccc3c2=O)cc1 yielded a melting point of 238 to 240 °C.
CCCc1nc2c(N)nc3cccnc3c2n1CCCCS(=O)(=O)N(C)C gave a melting point of 162 to 163 °C.
With CCc1nc2c(C)c(C#N)c(C)cc2n1-c1ccc(CCNC(=O)NS(=O)(=O)c2ccc(C)cc2)cc1 the melting point was 140 to 145 °C.
Work on COC(=O)c1[nH]nc2c1CCc1cc(OC)c(Br)cc1-2 yielded a melting point of 240 to 241 °C.
O=C1Nc2cc(Cl)ccc2C(=O)C1c1csc2ccccc12 (stereo unspecified) showed a melting point of 320 °C.
CC(n1cncn1)C(O)(COc1ccc(F)cc1)C(C)(C)C (stereo unspecified) showed a melting point of 85 to 100 °C.
c1ccc(CC2CCN(Cc3ccn(-c4ccccc4)c3)CC2)cc1 showed a melting point of 159 to 161 °C.
N#Cc1ccc(-c2ccc3nc(-c4ccc(C#N)cc4)cn3c2)cc1 showed a melting point of 292 to 294 °C.
Work on CCc1nc2c(C(N)=O)cccc2n1-c1ccc(CCNC(=O)NS(=O)(=O)c2ccc(C)cc2)cc1 yielded a melting point of 208 to 214 °C.
CNC(=O)CCC(=O)c1ccccc1 gave a melting point of 80 to 82 °C.
In the case of C#CCC(CCc1ccccc1)(C(N)=S)c1cccnc1 (stereo unspecified), the melting point is reported as 73 to 74 °C.
CCc1c(C(=O)C(C)C)c2ccc(-c3nnn[nH]3)cc2n1Cc1ccccc1Cl gave a melting point of 160 to 163 °C.
With COC(=O)COc1cccc2c(CCO)c(CCOC(C)=O)oc12 the melting point was 80 to 81 °C.
In the case of COCC(C)Oc1cc(Oc2ccc(S(C)(=O)=O)cc2)cc2cc(C(=O)O)[nH]c12 (stereo unspecified), the melting point is reported as 136 to 137 °C.
For OC1Oc2ccccc2-n2cnc(-c3noc(C4CC4)n3)c21 (stereo unspecified), the melting point was 230 to 234 °C.
CC1(C)[C@H](C(=O)OCc2csc(Oc3ccccc3)n2)[C@@H]1C=C1CCSC1=O gave a melting point of 78 °C.
Compound CCOC(=O)c1nc2n(c(=O)c1O)CCN2CCO has a melting point of 155 to 156 °C.
Work on Cc1c(C(=O)c2cccnc2)sc2ccc(C(=O)O)cc12 yielded a melting point of 264 to 265 °C.
Compound CS(=O)(=O)n1c(Cc2ccc(C(=O)O)cc2)cc2cc(Cl)ccc21 has a melting point of 244 °C.
With CCOC(=O)c1ccc2nc3n(c(=O)c2c1)CCC3=Cc1ccccc1C the melting point was 184 to 185 °C.
In the case of COc1cc2c(cc1OC)C1(C3OCCO3)CNCC2O1 (stereo unspecified), the melting point is reported as 107 to 109 °C.
Work on COc1cc2c(cc1OC)[C@@H]1CN(C)CC[C@@H]1N=C2c1ccc(C)c(C)c1 (relative stereo) yielded a melting point of 182 to 184 °C.
For CCCCCCCC(=O)OCc1ccccc1-c1nc(-c2cccc(OC)c2)n[nH]1, the melting point was 61 °C.
COc1cc(OC(C)C)cc2c1-c1c(OC(C)C)cccc1C2=O gave a melting point of 74 to 75 °C.
For O=C(Nc1ccc(F)cc1F)N(Cc1ccccc1)CC(c1ccccc1)c1ccccc1, the melting point was 120 to 123 °C.
Work on Cn1cc(Cc2ccc(C(=O)N3CCC(N4CCCC4)C3)cc2)c2ccccc21 (stereo unspecified) yielded a melting point of 73 to 78 °C.
In the case of CCOC(=O)c1cc(OC(C)=O)c(OC(C)=O)c(OC(C)=O)c1, the melting point is reported as 76 to 78 °C.
Work on O=C(O)c1nccn1C(c1ccccc1)c1ccccc1 yielded a melting point of 191 °C.
CC(=O)Oc1ccc(C(Cl)=CC=O)cc1[N+](=O)[O-] gave a melting point of 128 to 130 °C.
CNC(C)=CC(=O)CS(=O)(=O)NC(C)C showed a melting point of 83 to 85 °C.
N#Cc1ccc(C(=O)N[C@H]2CC[C@H](CCN3CCN(c4nccc5c4CCO5)CC3)CC2)cc1 showed a melting point of 244 °C.
With O=S(=O)(Nc1cccnc1Nc1ccccc1)c1ccc(O)cc1 the melting point was 226 to 228 °C.
With N#Cc1ccc(C(F)(F)F)cc1N=NN(C(=O)Nc1ccccc1)c1cc(C(F)(F)F)ccc1C#N the melting point was 157 to 158 °C.
For COc1cccc2c1C(=O)c1c(OC)cc(C(=O)N(C)O)cc1C2=O, the melting point was 182 °C.
With CC(C)OC(=O)c1cc(OC(C)C)ccc1[N+](=O)[O-] the melting point was 45 to 50 °C.
Work on OCCNc1ccnc2cc3c(cc12)OCO3 yielded a melting point of 233 to 234 °C.
Compound Fc1cccc(-c2ncc(-c3cnc(-c4ccccc4)[nH]3)cn2)c1 has a melting point of 240 °C.
Work on CCCn1cc(Cc2ccc(C(=O)OC)cc2OC)c2cc(CCCC(=O)O)ccc21 yielded a melting point of 106 to 109 °C.
O=C(O)Cc1ccc(S(=O)c2ccc(Cl)cc2)cc1 (stereo unspecified) showed a melting point of 139 to 141 °C.
CCCCn1c(N)c(N=O)c(=O)n(CCCC)c1=O showed a melting point of 199 to 205 °C.
Compound OC(CNCCNc1ncnc2nc[nH]c12)COc1ccccc1 (stereo unspecified) has a melting point of 169 to 170 °C.
For O=C1c2ccccc2C(=O)c2c1cccc2N1CCC(O)CC1, the melting point was 145 °C.
CCOC(=O)C(C)(C)CCCCOc1ccc(NC(=O)CCCCCn2ccnc2)cc1 showed a melting point of 64 to 65 °C.
Compound COc1ccccc1OCC1SCCN1S(C)(=O)=O (stereo unspecified) has a melting point of 118 to 120 °C.
For CCOc1cc2c(cc1OCC)C(C=Cc1ccc(O)c(OC)c1)=NN=C(C)C2, the melting point was 190 to 191 °C.
With COc1cccc2c1CCCC2=NO the melting point was 158 to 159 °C.
In the case of Nc1ccc(OCc2ccc3ccccc3n2)cc1, the melting point is reported as 126 to 128 °C.
For CCCCCCCCCCCCCCCCCCOc1cc(OCCCOc2ccccc2)cc(N(CC(=O)O)CC(=O)O)c1, the melting point was 99 to 102 °C.
For CC(C)c1cccc(C(C)C)c1NC(=O)NC(c1ccccc1)c1ccccc1, the melting point was 245 to 246 °C.
For O=C(O)C1=CCCN1C(=O)CCSSCCC(=O)N1CCC=C1C(=O)O, the melting point was 158 to 160 °C.
Fc1cccc(C(c2ccnc3ccccc23)n2ccnc2)c1 (stereo unspecified) showed a melting point of 140 °C.
For Cc1nc2c(O)c(CCC(=O)c3ccccc3OCc3ccccc3)c(C(=O)N(C)C)cc2n1C, the melting point was 193 to 194 °C.
Work on CCOC(=O)Cc1c(-c2ccccc2)[nH]c2ccccc12 yielded a melting point of 61 to 62 °C.
For O=C(O)CCc1c(C(=O)O)[nH]c2cc(-c3ccccc3)cc(-c3ccccc3)c12, the melting point was 243 to 245 °C.
In the case of Cc1nc2c(cnn2-c2c(Cl)cc(C(F)(F)F)cc2Cl)c(=O)[nH]1, the melting point is reported as 300 °C.
Cn1c(=N)sc2cc(OC(F)(F)F)ccc21 showed a melting point of 60 to 62 °C.
Work on CC(=O)Nc1cccc(C=CC(=O)C2C(=O)OC(=O)C(C(C)=O)=C2O)c1 (stereo unspecified) yielded a melting point of 222 to 224 °C.
Work on Cn1cc2c3c(c(F)cc2n1)CCC3=CC#N yielded a melting point of 249 to 252 °C.
Work on O=[N+]([O-])c1c(-c2ccc(Cl)cc2)[nH]c(C(F)(F)F)c1-c1csc(Br)c1 yielded a melting point of 174 to 176 °C.
With CCCCOc1c(NCc2ccc(C#N)cc2Cl)c(=O)c1=O the melting point was 148 to 149 °C.
Work on CCN(CC)CCN1C(=O)C(OC(C)=O)C(c2ccc(OC)cc2)Sc2c1ccc1ccccc21 (stereo unspecified) yielded a melting point of 148 to 149 °C.
In the case of Cc1ccccc1N=NC1=NCCS1, the melting point is reported as 79 to 80 °C.
COCc1cnn(-c2c(Cl)cc(C(F)(F)F)cc2Cl)n1 gave a melting point of 32 to 33 °C.
Cc1cc(NC(=O)c2cccc(CCc3cccnc3)c2)ccc1C(C)C gave a melting point of 143 to 144 °C.
With CCC1(Cl)C(=O)c2c(cc(OCC(=O)O)c(Cl)c2Cl)C1Cl (stereo unspecified) the melting point was 186 °C.
With N#CSCCNc1ccc([N+](=O)[O-])cc1Cl the melting point was 148 to 150 °C.
CCOC(=O)c1cnc2sc(-c3ccc(OC)cc3)c(CN(C)Cc3ccccc3)c2c1O gave a melting point of 175 to 177 °C.
Compound O=C(O)C1=Cc2cc(Cl)c(S(=O)c3ccc(Cl)cc3)cc2OC1C(F)(F)F (stereo unspecified) has a melting point of 214 to 217 °C.
In the case of CN(C)CCCNS(=O)(=O)c1cccc([N+](=O)[O-])c1, the melting point is reported as 84 to 87 °C.
Work on CS(=O)(=O)c1ccc(-c2cnn(CC(F)(F)F)c(=O)c2Sc2nc[nH]n2)cc1 yielded a melting point of 197 to 200 °C.
In the case of CC(O)(CF)C(=O)Nc1ccc(S(=O)(=O)c2ccncc2)cc1 (stereo unspecified), the melting point is reported as 209 to 211 °C.
With CCCCCCCNC(=O)Nc1ccccc1C(=O)NCCSc1nc(-c2ccccc2)c(-c2ccccc2)[nH]1 the melting point was 285 to 288 °C.
With Cc1cc(O)c(I)cc1C(=O)O the melting point was 143 to 150 °C.
In the case of COC1=NS(=O)(=O)N(Cc2ccccc2)C(=O)N1, the melting point is reported as 141 to 144 °C.
With COc1ccc2c(c1)OCCC(C(=O)N1CCN(C(=O)c3cc(OC)c(OC)c(OC)c3)CC1)=C2 the melting point was 133 to 135 °C.

— a melting point compilation (Tetko et al.; mined from patent text by program, amines drawn as free bases though some values may be those of a salt)
